Reference: patent publication US10239825B2, “Ketamine derivatives” (Auckland Uniservices Limited, priority 2013, dated 2019)

Columns and labels:
[1] = test system: adult female Sprague-Dawley rats; test: rat infusion study: loss/recovery of righting reflex and walk (anaesthetic effect); type: in vivo
Experimental: (§1) All animal experiments were conducted at the Ruakura Research Centre, Hamilton, New Zealand, using experimental protocols reviewed and approved by the Ruakura Animal Ethics Committee (ethics ref 12604).
(§2) Following acquisition of baseline physiologic parameters (heart rate, respiratory rate, PWR, and righting reflex (RR)) adult female Sprague-Dawley rats of approximately 350-450 g were put under non-traumatic restraint and the marginal vein of the tail was cannulated. Ketamine or a compound of the invention at 10 mg/ml was administered via a minibore extension tube adequately secured to the tail. Infusions were commenced at a rate (weight-adjusted) to deliver 20 mg/kg/min initially (until the pedal withdrawal reflex score PWR=1), then were reduced to a rate of 6.7 mg/kg/min. Infusion rate was then titrated in an up-and-down fashion to maintain dorsal recumbency and a PWR=1 to 10 minutes before cessation. Three rats were used in each study, with each group of rats also acting as their own ketamine control. The order of study drug administration was determined by prior odds/evens randomisation with a recovery interval of at least one hour afforded between experiments. PWR and RR were recorded at 1 minute intervals throughout. The times from cessation of infusion to return of righting reflex (RRR), and from cessation of infusion to the animals displaying independent locomotion (walk) were recorded.
Loss of Righting Reflex (LRR):
This is primarily used to assess anaesthetic hypnotic effect. Righting reflex is judged absent when the rat fails to right from a position of dorsal recumbency to a position of sternal recumbency on three attempts performed in rapid succession. Dose to LRR is termed effective potency.

[2] = test system: adult female Sprague-Dawley rats; test: rat infusion study: pedal withdrawal reflex PWR = 1 (analgesic effect); type: in vivo
Experimental: as §1, §2
Pedal Withdrawal Reflex (PWR) Scoring:
Nociceptive testing in animals was conducted via 1 second application of constant pressure (firm digital pressure) over the forepaw of the animal. Pedal withdrawal reflex testing is primarily used to assess analgesic effect, and responses are graded accordingly: 0, absent; 1, flicker; 2, moderate withdrawal; 3, fast withdrawal; 4, Fast withdrawal with cry/preceding apnoea (modified from Buitrago, S. et al. J. Amer. Assoc. Lab. Animal. Sci. 2008, 47, 11-17).

[3] = in vivo; cited from earlier work
[4] = average over the various experiments
[5] = range over the various experiments

CNC1(c2ccccc2Cl)CCCCC1=O (racemic) [rac-ketamine, (2-o-Chlorophenyl)-2-methylamino-cyclohexanone, reference compound]
minimal effective dose ([1]; Rattus norvegicus, iv, total drug administered to achieve loss of righting reflex, i.v. infusion, read-out: LRR Dose): 20 ± 1 mg/kg
Time to RRR, Average [1, 4]: 1212 ± 318 s
Time to achieve LRR, Average [1, 4]: 61 ± 8 s
Time to walking, Average [1, 4]: 1709 ± 400 s
Total dose to LRR, Average ([1]; average over the various experiments (Table 4 row r6)): 21 ± 7 mg/kg
Time to RRR, Range [1, 5]: 863 to 2040 s
Time to achieve LRR, Range [1, 5]: 51 to 75 s
Time to walking, Range [1, 5]: 1100 to 2340 s
Total dose to LRR, Range ([1]; range over the various experiments (Table 4 row r6)): 17 to 27 mg/kg
minimal effective dose ([2]; Rattus norvegicus, iv, total drug administered to achieve PWR = 1, i.v. infusion): 26 ± 1 mg/kg
Time to PWR = 1, Average [2, 4]: 76 ± 9 s
Total dose to PWR = 1 ([2]; average over the various experiments (Table 4 row r8, second line so named)): 26 ± 4 mg/kg
Time to PWR = 1, Range [2, 5]: 60 to 95 s
Total dose to PWR = 1 ([2]; range over the various experiments (Table 4 row r8, second line so named)): 21 to 34 mg/kg
half-life [3]: 2 to 3 h
